In paper PMC5747364 (Science (New York, N.Y.), 2017):

Molecular target: T1, SAMTOR (Homo sapiens, UniProt Q1RMZ1)
T1 sequence (Q1RMZ1 1-405): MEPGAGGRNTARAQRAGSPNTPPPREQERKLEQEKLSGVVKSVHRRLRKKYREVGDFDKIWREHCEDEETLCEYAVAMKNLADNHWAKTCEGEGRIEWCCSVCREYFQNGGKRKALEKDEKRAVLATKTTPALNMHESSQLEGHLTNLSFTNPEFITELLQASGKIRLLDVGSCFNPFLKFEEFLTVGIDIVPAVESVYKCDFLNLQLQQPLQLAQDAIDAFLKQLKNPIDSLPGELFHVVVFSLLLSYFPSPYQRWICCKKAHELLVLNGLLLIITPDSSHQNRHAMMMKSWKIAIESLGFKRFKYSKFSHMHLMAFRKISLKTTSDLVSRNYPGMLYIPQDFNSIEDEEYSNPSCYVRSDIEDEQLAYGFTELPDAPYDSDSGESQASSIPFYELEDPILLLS
Experiment: competition binding against [3H]SAM on purified FLAG-SAMTOR
Settings: competitive with [3H]SAM

With `Nc1ncnc2c1ncn2[C@@H]1O[C@H](CSCC[C@H](N)C(=O)O)[C@@H](O)[C@H]1O` [SAH] the Ki was “SAMTOR can also bind S-adenosylhomocysteine (SAH), the demethylated form of SAM”.
